In publication PMC11739599 (Nature Communications, 2025):

Tests used:
Test in all cases: KINOMEscan panel
Assay type in all cases: biochemical
[1] = target: RSK4 (Homo sapiens, UniProt Q9UK32)
[2] = target: RSK3 (Homo sapiens, UniProt Q15349)
[3] = target: RSK2 (Homo sapiens, UniProt P51812)
[4] = target: RSK1 (ribosomal protein S6 kinase A1) (Homo sapiens, UniProt Q15418)
Sequence of RSK1 (ribosomal protein S6 kinase A1) (Q15418 whole entry): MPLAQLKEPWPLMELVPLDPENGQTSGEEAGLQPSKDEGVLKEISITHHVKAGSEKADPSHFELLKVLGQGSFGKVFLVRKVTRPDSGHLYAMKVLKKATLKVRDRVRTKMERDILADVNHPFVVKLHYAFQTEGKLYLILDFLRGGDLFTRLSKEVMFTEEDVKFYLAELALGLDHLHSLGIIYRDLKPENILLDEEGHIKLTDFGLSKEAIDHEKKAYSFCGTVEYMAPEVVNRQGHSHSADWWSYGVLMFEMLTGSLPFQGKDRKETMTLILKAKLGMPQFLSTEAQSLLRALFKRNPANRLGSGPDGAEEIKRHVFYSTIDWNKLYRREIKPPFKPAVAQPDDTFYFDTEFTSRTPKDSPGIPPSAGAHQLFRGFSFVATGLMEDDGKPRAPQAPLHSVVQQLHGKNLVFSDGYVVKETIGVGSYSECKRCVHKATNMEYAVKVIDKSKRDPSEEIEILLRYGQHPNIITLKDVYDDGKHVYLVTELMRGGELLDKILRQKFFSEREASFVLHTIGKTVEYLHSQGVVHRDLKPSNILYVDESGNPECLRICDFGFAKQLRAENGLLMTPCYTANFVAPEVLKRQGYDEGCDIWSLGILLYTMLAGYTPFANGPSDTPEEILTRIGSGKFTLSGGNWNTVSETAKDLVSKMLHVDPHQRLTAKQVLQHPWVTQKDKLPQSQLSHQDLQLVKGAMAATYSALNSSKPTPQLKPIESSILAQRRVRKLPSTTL

Sequence of RSK3 (Q15349 whole entry): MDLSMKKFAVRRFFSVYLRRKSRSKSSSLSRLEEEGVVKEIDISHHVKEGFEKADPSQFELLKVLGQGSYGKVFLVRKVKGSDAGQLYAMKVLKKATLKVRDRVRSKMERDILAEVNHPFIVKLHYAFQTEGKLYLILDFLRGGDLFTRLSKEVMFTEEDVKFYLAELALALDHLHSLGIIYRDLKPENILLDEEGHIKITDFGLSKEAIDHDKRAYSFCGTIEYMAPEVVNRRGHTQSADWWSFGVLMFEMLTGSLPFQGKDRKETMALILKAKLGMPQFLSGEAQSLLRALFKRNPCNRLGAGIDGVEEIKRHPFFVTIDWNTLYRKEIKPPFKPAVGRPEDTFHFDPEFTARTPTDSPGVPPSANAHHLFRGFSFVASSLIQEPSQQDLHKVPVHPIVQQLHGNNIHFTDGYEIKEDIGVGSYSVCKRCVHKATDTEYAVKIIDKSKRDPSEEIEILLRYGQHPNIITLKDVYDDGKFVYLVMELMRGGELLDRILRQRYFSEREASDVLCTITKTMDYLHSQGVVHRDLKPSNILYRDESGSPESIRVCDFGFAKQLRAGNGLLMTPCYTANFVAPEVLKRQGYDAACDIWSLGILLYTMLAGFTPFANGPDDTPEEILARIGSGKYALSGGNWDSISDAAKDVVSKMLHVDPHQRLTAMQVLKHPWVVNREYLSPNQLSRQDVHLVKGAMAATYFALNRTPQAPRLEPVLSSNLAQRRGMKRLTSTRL
Sequence of RSK4 (Q9UK32 whole entry): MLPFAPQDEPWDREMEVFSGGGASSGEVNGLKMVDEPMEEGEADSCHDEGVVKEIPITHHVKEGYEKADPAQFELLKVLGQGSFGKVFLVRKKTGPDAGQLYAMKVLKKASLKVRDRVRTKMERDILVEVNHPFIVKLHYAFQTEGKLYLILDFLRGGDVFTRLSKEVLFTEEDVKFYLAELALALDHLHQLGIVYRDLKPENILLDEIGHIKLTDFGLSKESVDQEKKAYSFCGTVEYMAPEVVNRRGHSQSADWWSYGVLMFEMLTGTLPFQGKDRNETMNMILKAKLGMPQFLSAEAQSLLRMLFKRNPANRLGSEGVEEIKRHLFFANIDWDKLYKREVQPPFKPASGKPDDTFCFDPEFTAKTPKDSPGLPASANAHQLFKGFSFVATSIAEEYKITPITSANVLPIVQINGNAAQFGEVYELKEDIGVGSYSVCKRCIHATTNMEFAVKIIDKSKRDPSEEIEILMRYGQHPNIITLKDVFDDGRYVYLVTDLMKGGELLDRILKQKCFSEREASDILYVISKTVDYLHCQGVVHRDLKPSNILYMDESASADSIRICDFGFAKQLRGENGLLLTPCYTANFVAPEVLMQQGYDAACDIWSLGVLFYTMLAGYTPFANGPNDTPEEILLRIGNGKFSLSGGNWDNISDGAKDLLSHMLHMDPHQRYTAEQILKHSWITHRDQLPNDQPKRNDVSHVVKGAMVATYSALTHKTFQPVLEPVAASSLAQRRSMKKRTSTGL
Sequence of RSK2 (P51812 whole entry): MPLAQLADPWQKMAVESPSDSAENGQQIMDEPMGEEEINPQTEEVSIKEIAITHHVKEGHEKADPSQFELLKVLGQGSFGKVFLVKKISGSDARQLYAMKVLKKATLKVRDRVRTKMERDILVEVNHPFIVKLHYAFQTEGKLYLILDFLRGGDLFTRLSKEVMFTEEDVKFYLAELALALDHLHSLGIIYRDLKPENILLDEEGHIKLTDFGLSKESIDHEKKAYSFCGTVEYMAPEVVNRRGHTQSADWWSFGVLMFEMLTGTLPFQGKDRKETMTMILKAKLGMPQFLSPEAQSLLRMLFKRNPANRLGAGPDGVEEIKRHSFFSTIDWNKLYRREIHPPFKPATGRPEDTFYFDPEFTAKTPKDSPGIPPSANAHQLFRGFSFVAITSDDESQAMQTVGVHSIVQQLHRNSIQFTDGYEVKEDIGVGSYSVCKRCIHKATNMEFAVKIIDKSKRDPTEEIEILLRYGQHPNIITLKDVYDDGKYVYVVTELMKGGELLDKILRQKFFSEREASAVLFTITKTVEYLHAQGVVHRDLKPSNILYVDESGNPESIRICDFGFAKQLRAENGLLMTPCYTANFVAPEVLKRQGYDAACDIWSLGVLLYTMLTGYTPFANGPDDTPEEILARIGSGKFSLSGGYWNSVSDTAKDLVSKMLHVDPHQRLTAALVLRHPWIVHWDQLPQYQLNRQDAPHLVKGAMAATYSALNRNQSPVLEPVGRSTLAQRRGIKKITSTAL

IC50 [1]: 2 nM
IC50 [2]: 0.9 nM
IC50 [3]: 0.7 nM
IC50 [4]: 2 nM
Substance: PMD-026
